From patent US10793519B2, “Ultra short acting anti-arrhythmic agents” (Academic Pharmaceuticals Incorporated, priority 2018, dated 2020)
Read-outs that look alike come from different tables or passages of the source.

Columns and labels:
hERG channel = hERG channel (Homo sapiens, UniProt Q12809); test: whole-cell voltage-clamp tail current / current density experiments in hERG-HEK cells
Protocol: A set of whole-cell, voltage-clamp experiments was performed using a HEKA® EPC 9 amplifier. Data was recorded and analyzed using the HEKA® Patchmaster and Fitmaster software. At the time of the recordings, cell culture media was replaced by a bath solution (containing (mM): 137 NaCl, 4 KCl, 1.8 CaCl2, 10 HEPES, and 10 glucose, pH adjusted to 7.4 with NaOH). The pipette solution containing different concentrations of the drug to test was introduced. Borosilicate glass electrodes (tip resistant 2-5 MΩ) were filled with internal solution (containing (mM): 130 KCl, 1 MgCl2, 5 EGTA, 5 MgATP and 10 HEPES, pH adjusted to 7.2 with KOH). Tail currents were measured at repolarizing test potentials (−100 to +40 mV, 4 seconds each) following a one second depolarizing step to +60 mV from a holding potential of −80 mV. Cell recordings were performed in a minimum of 2 plates (3-5 cells/plate) for each EFV concentration and compared to control.
In hERG-HEK cells that were transiently […] with CYP2B6*1 cDNA, tail current recordings were performed using the following 2-sweep voltage clamp protocol: membrane potential was held at −80 mV, increased to 60 mV (1 second), and currents were measured during two repolarizing steps at −100 and −20 mV (5 seconds each). This protocol was performed twice for each cell at 1 and 2 minutes following cytosolic access and exposure to the pipette solution to evaluate the influence of incubation time on drug mediated alterations in hERG channel conductivity. A sigmoidal Emax model was fit to the EFV inhibitory effect on 1hERG using Prism (GraphPad Software, Inc., La Jolla, Calif.).
Sotalol ester, soestolol (ester A, Table 1, Example 1) and its corresponding acid (ester C) were evaluated. The studies were performed blinded with the operator unaware of the chemical structure of Ester A or Ester C.

[1] = cited from earlier work

Sequence of hERG channel (Q12809 whole entry): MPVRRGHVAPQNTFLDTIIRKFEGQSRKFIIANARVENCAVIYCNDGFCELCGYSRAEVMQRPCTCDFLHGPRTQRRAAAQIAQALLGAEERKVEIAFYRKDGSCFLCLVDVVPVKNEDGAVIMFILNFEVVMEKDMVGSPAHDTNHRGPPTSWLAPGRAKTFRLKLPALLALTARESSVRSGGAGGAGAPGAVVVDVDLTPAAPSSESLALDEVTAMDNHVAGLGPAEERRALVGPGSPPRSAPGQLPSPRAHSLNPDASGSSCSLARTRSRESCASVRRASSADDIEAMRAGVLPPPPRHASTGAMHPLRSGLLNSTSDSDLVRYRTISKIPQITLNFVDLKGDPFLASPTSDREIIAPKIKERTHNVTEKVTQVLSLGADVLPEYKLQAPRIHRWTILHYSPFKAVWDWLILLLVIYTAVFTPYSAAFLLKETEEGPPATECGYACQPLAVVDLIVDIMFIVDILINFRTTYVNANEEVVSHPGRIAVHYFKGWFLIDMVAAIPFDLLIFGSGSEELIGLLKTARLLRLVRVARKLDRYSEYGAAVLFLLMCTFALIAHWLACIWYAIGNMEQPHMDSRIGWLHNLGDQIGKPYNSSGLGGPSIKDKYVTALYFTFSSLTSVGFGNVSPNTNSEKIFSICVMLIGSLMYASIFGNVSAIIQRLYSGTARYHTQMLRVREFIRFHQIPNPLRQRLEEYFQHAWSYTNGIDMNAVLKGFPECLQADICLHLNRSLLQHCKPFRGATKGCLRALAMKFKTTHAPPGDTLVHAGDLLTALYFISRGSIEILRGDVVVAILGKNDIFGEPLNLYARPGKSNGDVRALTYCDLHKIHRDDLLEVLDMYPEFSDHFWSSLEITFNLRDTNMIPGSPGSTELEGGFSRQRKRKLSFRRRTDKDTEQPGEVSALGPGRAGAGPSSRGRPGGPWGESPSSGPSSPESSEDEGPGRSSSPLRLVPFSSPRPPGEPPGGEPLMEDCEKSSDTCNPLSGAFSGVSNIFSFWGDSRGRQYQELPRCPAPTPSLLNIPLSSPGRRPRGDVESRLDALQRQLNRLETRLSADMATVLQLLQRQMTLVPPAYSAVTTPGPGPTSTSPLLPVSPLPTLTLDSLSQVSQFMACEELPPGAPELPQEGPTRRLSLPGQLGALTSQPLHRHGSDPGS

COC(=O)CS(=O)(=O)Nc1ccc(C(O)CNC(C)C)cc1 (stereo not drawn) [Ester A]
inhibition of K current (current density), FIG. 1 (hERG channel): dose dependent reduction in current | potency on K current compared with sotalol, FIG. 1 (hERG channel): significantly more potent than the corresponding sotalol dose

CC(C)NCC(O)c1ccc(NS(C)(=O)=O)cc1 (stereo not drawn) [sotalol]
half-life ([1]; in man, on average): twelve | terminal elimination half-life ([1]; in vivo): 10 to 20 h | reduction in current, FIG. 2 (hERG channel; 5 μM): dose related reduction in current | reduction in current, FIG. 2 (hERG channel; 50 μM): dose related reduction in current | inhibition of K current (current density), FIG. 1 (hERG channel; 5 μm): reduction in current | inhibition of K current (current density), FIG. 1 (hERG channel; 10 μm): further reduction

CC(C)NCC(O)c1ccc(NS(=O)(=O)CC(=O)O)cc1 (stereo not drawn) [Ester C]
activity on current, FIG. 2 (hERG channel): no activity
